Assay results published in paper PMC10762035, “Molecular basis of human trace amine-associated receptor 1 activation” (Nature Communications, 2024).
Changes are numbered by the printed parent chain. Values joined by “and” are separate entries in the source; they are usually repeats but may differ in a detail not shown here. Identical values can stand only once. Like-named read-outs stand apart in the source and are kept apart here.

Tests used:
Assay type in all cases: cell-based
hTA1 = biological target: T1, hTA1 (Homo sapiens, UniProt Q96RJ0); assay: GloSensor cAMP accumulation assay, concentration response, wild-type hTA1 in transfected HEK293T cells; details: for Emax: HEK-293T;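 for all read-outs here: luminescence read after 30 min compound exposure at room temperature in cells preloaded with D-Luciferin, reflecting Gs-driven cAMP rise, efficacy scaled to the maximal β-PEA response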
T1 construct: expressed in transfected cells; host or cells: HEK293T
T1 sequence (Q96RJ0 1-339): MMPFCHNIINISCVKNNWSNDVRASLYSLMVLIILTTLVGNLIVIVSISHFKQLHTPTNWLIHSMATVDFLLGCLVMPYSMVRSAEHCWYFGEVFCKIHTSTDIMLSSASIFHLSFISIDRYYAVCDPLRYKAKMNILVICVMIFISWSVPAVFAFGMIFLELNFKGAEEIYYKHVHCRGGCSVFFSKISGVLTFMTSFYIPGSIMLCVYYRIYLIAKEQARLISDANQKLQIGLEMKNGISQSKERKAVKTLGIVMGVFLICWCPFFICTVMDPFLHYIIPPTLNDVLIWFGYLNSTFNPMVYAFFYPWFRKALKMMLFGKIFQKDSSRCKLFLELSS

[1] = biological target: T2, β2AR-Nterm-hTA1-F112^3.41W (CryoEM Construct) (Homo sapiens, UniProt Q96RJ0, F112W); assay: GloSensor cAMP accumulation assay, cryoEM construct;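 note: cells transiently co-transfected with the receptor construct and GloSensor cAMP biosensor, luminescence read after 30 min compound exposure at room temperature in the dark as cAMP accumulation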;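 for Normalized Luminescence Counts (N=2): normalized to the maximum response of β-PEA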
T2 construct: FLAG (N); 10xHis (N); TEV protease site (N); expressed in transfected cells; host or cells: HEK293T
T2 sequence (Q96RJ0 with tags, fused parts or gaps F112W): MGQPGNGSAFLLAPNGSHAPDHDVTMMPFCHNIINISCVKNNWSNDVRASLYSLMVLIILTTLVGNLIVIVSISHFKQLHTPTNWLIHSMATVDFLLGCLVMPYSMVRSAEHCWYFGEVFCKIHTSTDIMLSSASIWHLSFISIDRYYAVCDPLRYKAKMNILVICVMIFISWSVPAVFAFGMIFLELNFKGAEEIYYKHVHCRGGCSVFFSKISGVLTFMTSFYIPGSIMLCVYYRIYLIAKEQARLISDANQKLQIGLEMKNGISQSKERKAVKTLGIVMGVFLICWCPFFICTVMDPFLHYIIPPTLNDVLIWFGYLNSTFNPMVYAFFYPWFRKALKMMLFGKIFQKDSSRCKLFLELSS

hTA1 b2N = biological target: T3, hTA1 b2N (Homo sapiens, UniProt Q96RJ0); assay: GloSensor cAMP accumulation assay, b2N construct; details: b2N; n=2; read-out: Span ± SEM (Emax normalized to β-PEA)
T3 construct: read by me as the first 25 residues of β2AR (N); expressed in transfected cells; host or cells: HEK293T
T3 sequence (Q96RJ0 with tags, fused parts or gaps): as the sequence (Q96RJ0 with tags, fused parts or gaps F112W) above, with W137F counted along it

hTA1 C5S = biological target: T4, hTA1 C5S (Homo sapiens, UniProt Q96RJ0, C5S); assay: GloSensor cAMP accumulation assay, C5S mutant; details: for C5S - Normalized Luminescence Counts (N=2): log[Compound], single wells
T4 construct: expressed in transfected cells; host or cells: HEK293T
T4 sequence (Q96RJ0 1-339 C5S): T1 sequence (Q96RJ0 1-339) with C5S

hTA1 I290Y = biological target: T5, hTA1 I290Y (Homo sapiens, UniProt Q96RJ0, I290Y); assay: GloSensor cAMP accumulation assay, I290Y mutant; details: for cAMP accumulation response, normalized (concentration-response source data, single replicate values): hTA1 I290Y (N=3), log[Compound];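 for cAMP accumulation response, normalized (concentration-response source data, single replicate values): normalized to the maximum response of β-PEA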
T5 construct: expressed in transfected cells; host or cells: HEK293T
T5 sequence (Q96RJ0 1-339 I290Y): T1 sequence (Q96RJ0 1-339) with I290Y

[2] = Cryo EM Construct minus WT average

## CCc1[nH]nc(C(=O)Nc2ccc([C@H]3CNCCO3)cc2)c1C [ralmitaront]
hTA1
  Emax: 40.1%
hTA1; WT hTA1, β-PEA = 100, average of the two experiments, read-out: Emax values, Avg
  Emax: 40.1%
hTA1; WT hTA1, β-PEA = 100, each line an independent experiment, 3 replicates
  Emax values, Mean: 54.4399 and 25.7884
hTA1; WT, average of the experiments, β-PEA = 100
  Emax values, Avg: 40.11
hTA1; WT, average of the two experiments
  Emax values, Avg: 40.11
hTA1; WT, mean of each independent experiment (3 replicates), β-PEA = 100
  Emax values, Mean: 54.4399 and 25.7884
hTA1; WT, single experiments (3 replicates each), β-PEA = 100
  Emax values, Mean: 54.4399 and 25.7884
[1]; [2]
  ΔEmax values (each mutant value - WT average), Mean: 72.2357 and 63.0743
  ΔpEC50 values (each mutant value - WT average), Mean: -1.146 and -1.03
[1]; Cryo EM Construct, mean of each independent experiment (3 replicates)
  Emax values, Mean: -1.146 and -1.03
[1]; CryoEM Construct, log[Compound], M = -5, single replicates
  Normalized Luminescence Counts (N=2): 105.279 and 102.248 and 77.3142 and 99.3117
[1]; CryoEM Construct, n=2, read-out: Span ± SEM (Emax normalized to β-PEA)
  Emax: 107 ± 3.32%
hTA1 b2N
  Emax: 82.5 ± 4.39%
hTA1 C5S; C5S, n=2, read-out: Span ± SEM (Emax normalized to β-PEA)
  Emax: 53 ± 3.33%
hTA1 C5S; hTA1 C5S minus WT average
  ΔEmax values (each mutant value - WT average), Mean: 16.2371 and 9.571
  ΔpEC50 values (each mutant value - WT average), Mean: -0.2888 and -0.07449
hTA1 C5S; hTA1 C5S, β-PEA = 100, mean of 3 replicates, one line per independent experiment
  Emax values, Mean: 49.6851
hTA1 C5S; hTA1 C5S, β-PEA = 100, mean of 3 replicates, one line per independent experiment, read-out: Emax values, Mean
  Emax: 56.4%
hTA1 C5S; M = -5
  C5S - Normalized Luminescence Counts (N=2): 56.5093 and 57.6833 and 45.4685 and 47.3256 and 58.0276 and 41.5948
hTA1 C5S; M = -5.522
  C5S - Normalized Luminescence Counts (N=2): 55.6739 and 48.0198 and 44.2267 and 42.3543 and 55.8182 and 41.3187
hTA1 C5S; M = -6
  C5S - Normalized Luminescence Counts (N=2): 54.1385 and 48.494 and 48.3811 and 37.8664 and 46.5661 and 38.2116
hTA1 C5S; M = -6.522
  C5S - Normalized Luminescence Counts (N=2): 36.3243 and 27.5639 and 26.277 and 37.3831 and 32.0666 and 36.4855
hTA1 C5S; M = -7
  C5S - Normalized Luminescence Counts (N=2): 17.0199 and 14.6491 and 16.7715 and 16.6005 and 20.1908 and 19.0861
hTA1 I290Y; I290Y, read-out: Span ± SEM (Emax normalized to β-PEA)
  Emax: 17.6 ± 2.61%
hTA1 I290Y; I290Y, single experiments (3 replicates each), β-PEA = 100
  Emax values, Mean: 14.0517 and 22.6718 and 15.9842
hTA1 I290Y; M = -5
  cAMP accumulation response, normalized (concentration-response source data, single replicate values): 15.3564 and 19.3577 and 13.5096 and 22.3431 and 15.3808 and 18.6787 and 17.3474 and 21.8593 and 16.2195
hTA1 I290Y; M = -5.522
  cAMP accumulation response, normalized (concentration-response source data, single replicate values): 12.5863 and 17.5109 and 9.201 and 20.8774 and 14.2815 and 17.213 and 8.324 and 11.7076 and 15.0915
hTA1 I290Y; M = -6
  cAMP accumulation response, normalized (concentration-response source data, single replicate values): 6.738 and 15.972 and 11.3551 and 15.0144 and 31.5041 and 26.3739 and 8.324 and 3.812 and 11.7076
hTA1 I290Y; M = -6.522
  cAMP accumulation response, normalized (concentration-response source data, single replicate values): 9.508 and 11.6629 and 4.584 and 19.0452 and 19.7781 and 16.4801 and 8.324 (2×) and 15.0915
hTA1 I290Y; M = -7
  cAMP accumulation response, normalized (concentration-response source data, single replicate values): 5.199 and 18.1265 and 8.893 and 8.052 and 10.6171 and 15.0144 and 6.068 (2×) and 10.5796
hTA1 I290Y; M = -7.522
  cAMP accumulation response, normalized (concentration-response source data, single replicate values): 5.815 and 14.7408 and 3.6603 and 6.22 and 6.586 and 4.754 and 1.556 and -0.7002 and 0.4278
hTA1 I290Y; M = -8
  cAMP accumulation response, normalized (concentration-response source data, single replicate values): 4.584 and 6.738 and 6.43 and 5.853 and 4.388 and 1.823 and -2.956 and -1.828 and -0.7002
hTA1 I290Y; M = -8.522
  cAMP accumulation response, normalized (concentration-response source data, single replicate values): -1.264 and 1.506 and 0.8902 and -4.04 and -4.407 and 4.021 and -5.212 and -4.0841 and -2.956
hTA1 I290Y; M = -9
  cAMP accumulation response, normalized (concentration-response source data, single replicate values): -2.496 and -0.341 and -1.88 and -5.14 and -1.109 and 9.151 and -5.212 and -4.0841 and -2.956
hTA1 I290Y; M = -9.522
  cAMP accumulation response, normalized (concentration-response source data, single replicate values): -3.7267 and -1.264 and -2.803 and -1.475 and -4.407 and 4.388 and -4.0841 (2×) and -2.956
hTA1 I290Y; M = -10
  cAMP accumulation response, normalized (concentration-response source data, single replicate values): -2.188 (2×) and -0.6488 and -5.873 and -0.7424 and -6.239 and -2.956 (2×) and -1.828
hTA1 I290Y; M = -10.522
  cAMP accumulation response, normalized (concentration-response source data, single replicate values): -2.496
